Measurements reported in article PMC8592510 (CPT: Pharmacometrics & Systems Pharmacology, 2021).

Assays:
[1] = cited from earlier work
[2] = cited from earlier work; remark: listed apart in the source
[3] = cited from earlier work; remark: listed apart in the source
[4] = Bayesian feedback population PK analyses of phase III data; format: in vivo; conditions: human, plasma, oral
CYP3A = conditions: cited from earlier work
[5] = Logistic regression exposure-safety analyses; conditions: alectinib 300 or 600 mg b.i.d.
[6] = format: in vivo, human; conditions: covariate analysis, allometric scaling principles

Row | Compound | Frequency of Grade ≥3 AEs and SAEs, crizotinib versus alectinib ([1]; ALEX study) | Blood-brain barrier penetration [2] | Lipophilicity [3] | Safety profile compared with crizotinib ([1]; J-ALEX, ALEX and ALESIA) | half-life [4] [h] | Enzyme involved in metabolism (CYP3A) | First-pass metabolism by cytochrome P450 (CYP) 3A (CYP3A) | Effect of Caverage on severity of the first event for SAEs or Grade ≥3 AEs [5] | Relationship between Caverage and first occurrence of Grade ≥3 AEs ([5]; J-ALEX, ALEX, ALESIA) | Relationship between combined alectinib and M4 molar concentration (Caverage) and first occurrence of SAEs ([5]; J-ALEX, ALEX, ALESIA) | Body weight effect on clearance and volume [6]
1 | C[C@@H](Oc1cc(-c2cnn(C3CCNCC3)c2)cnc1N)c1c(Cl)ccc(F)c1Cl [crizotinib] | more frequent | – | – | – | – | – | – | – | – | – | –
2 | CCc1cc2c(cc1N1CCC(N3CCOCC3)CC1)C(C)(C)c1[nH]c3cc(C#N)ccc3c1C2=O [alectinib] | – | can penetrate the blood–brain barrier | lipophilic | favorable safety profile compared with crizotinib | 34 | CYP3A is the main enzyme | limited | no apparent effect | no significant relationship | no significant relationship | significant body weight effect
